Drawing on publication PMC6718313 (European journal of medicinal chemistry, 2019), this text covers EC50 for 2 compounds.

The target in this assay is T1, ABCG2 (Homo sapiens, UniProt Q9UNQ0).
T1 sequence (Q9UNQ0 1-655): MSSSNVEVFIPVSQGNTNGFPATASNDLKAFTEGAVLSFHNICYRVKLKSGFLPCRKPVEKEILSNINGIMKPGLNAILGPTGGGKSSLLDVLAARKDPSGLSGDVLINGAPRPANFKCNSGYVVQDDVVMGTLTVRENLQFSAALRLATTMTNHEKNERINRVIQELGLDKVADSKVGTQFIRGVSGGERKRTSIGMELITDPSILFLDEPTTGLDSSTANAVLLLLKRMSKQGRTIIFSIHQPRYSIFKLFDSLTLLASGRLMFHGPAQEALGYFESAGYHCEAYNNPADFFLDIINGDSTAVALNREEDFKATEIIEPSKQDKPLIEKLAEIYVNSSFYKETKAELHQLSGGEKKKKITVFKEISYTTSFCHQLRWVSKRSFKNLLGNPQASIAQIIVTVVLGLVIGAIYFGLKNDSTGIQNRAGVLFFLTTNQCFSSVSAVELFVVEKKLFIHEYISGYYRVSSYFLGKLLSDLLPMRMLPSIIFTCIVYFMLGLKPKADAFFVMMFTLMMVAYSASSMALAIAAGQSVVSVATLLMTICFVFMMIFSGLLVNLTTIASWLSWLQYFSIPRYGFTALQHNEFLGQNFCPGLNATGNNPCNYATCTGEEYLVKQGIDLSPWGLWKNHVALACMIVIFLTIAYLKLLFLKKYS
Nature of the assay: Vi-sensitive ABCG2 ATPase stimulation in High Five insect cell membranes. The assay is classed as biochemical.

For orientation: EC50 means the midpoint of the concentration-response curve. Low values mean an effect from little substance, high ones a need for much substance. In turn, `COc1ccc(C(=O)c2ccc3[nH]cc(C(=O)c4ccc(OC)cc4)c3c2OC)cc1` [compound 2, (4-methoxy-1H-indole-3,5-diyl)bis((4-methoxyphenyl)methanone)] yielded an EC50 of 210 nM. Then `COc1ccc(C(=O)c2c[nH]c3ccc(OC)cc23)cc1` [compound 8, (5-Methoxy-1H-indol-3-yl)(4-methoxyphenyl)methanone], with 750 nM.
